{
  "source": "paper PMC6017873",
  "about": "(Molecules : A Journal of Synthetic Chemistry and Natural …, 2018)",
  "key": {"HDAC3": {"target": "HDAC3 (Homo sapiens, UniProt O15379)", "sequence (O15379 whole entry)": "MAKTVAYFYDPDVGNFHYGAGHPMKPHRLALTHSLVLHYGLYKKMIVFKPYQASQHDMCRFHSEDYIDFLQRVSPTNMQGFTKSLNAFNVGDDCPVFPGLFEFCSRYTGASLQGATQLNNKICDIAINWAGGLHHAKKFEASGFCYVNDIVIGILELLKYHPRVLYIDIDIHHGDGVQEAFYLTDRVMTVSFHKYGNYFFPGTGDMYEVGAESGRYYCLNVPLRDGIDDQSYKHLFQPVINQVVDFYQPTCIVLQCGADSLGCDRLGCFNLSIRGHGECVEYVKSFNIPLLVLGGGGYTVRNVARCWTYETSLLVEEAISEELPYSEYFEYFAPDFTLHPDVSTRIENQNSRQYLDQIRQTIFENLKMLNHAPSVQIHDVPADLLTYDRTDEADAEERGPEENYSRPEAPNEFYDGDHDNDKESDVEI", "sequence (Q9Y618 395-489 partner limits assumed)": "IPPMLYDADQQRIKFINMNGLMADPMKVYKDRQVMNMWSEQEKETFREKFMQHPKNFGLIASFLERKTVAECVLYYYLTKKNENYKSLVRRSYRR", "experiment": "Selective in vitro HDAC activity assay, recombinant HDAC3", "format": "biochemical", "settings": "100 µM", "method": "(§1) (a) In vitro total HDAC activity was evaluated using K-562 nuclear extracts in the presence of various concentrations of eurochevalierine. (b) Selective in vitro HDAC activity assays were carried out using selected recombinant HDAC proteins in the presence of various concentrations of eurochevalierine. Results are reported as percent of DMSO vehicle control and expressed as the mean ± SD of three independent experiments. * and ** indicate p < 0.05 and p < 0.01 versus untreated cells, respectively."}, "HDAC10": {"target": "T1, HDAC10 (Homo sapiens, UniProt Q969S8)", "T1 sequence (Q969S8 1-669)": "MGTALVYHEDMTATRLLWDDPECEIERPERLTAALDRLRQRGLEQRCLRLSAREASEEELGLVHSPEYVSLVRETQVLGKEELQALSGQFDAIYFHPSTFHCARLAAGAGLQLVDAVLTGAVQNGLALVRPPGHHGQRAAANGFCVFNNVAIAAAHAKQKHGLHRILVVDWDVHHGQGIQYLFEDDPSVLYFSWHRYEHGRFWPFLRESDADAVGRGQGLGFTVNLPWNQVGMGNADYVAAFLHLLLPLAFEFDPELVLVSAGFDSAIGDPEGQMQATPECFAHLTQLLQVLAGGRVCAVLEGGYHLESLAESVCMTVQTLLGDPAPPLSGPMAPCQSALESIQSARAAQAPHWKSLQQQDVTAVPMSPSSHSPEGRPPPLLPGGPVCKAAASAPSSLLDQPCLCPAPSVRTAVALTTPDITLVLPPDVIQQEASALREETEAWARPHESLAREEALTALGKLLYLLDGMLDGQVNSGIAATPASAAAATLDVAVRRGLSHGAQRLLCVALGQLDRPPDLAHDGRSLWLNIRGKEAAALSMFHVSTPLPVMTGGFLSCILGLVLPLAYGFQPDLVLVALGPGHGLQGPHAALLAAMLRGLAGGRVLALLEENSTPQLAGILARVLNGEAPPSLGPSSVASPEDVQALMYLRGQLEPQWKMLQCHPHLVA", "experiment": "Selective in vitro HDAC activity assay, recombinant HDAC10", "format": "biochemical", "settings": "100 µM", "method": "as §1"}, "B16-F10 cells": {"system": "B16-F10 cells", "experiment": "Sub-G1 fraction by PI flow cytometry, B16-F10", "format": "cell-based, murine", "settings": "B16-F10, 50 µM, 72 h"}, "SK-MEL-28 cells": {"system": "SK-MEL-28 cells", "experiment": "Acetylation of sirtuin targets by Western blot, SK-MEL-28", "format": "cell-based, human", "settings": "SK-MEL-28, 5 and 50 µM, 8 h", "method": "(§2) Figure 5 Effect of eurochevalierine on the acetylation status of sirtuin targets. SK-MEL-28, U-373, and A-549 cells were treated with 5 and 50 µM eurochevalierine (EU) for 8 h. Acetylation of histone H4 (AcH4), histone H3 at lysine 56 (AcH3K56), and α-tubulin (Ac α-tubulin) was analyzed via Western blot. β-actin and histone H1 were used as loading controls for the analysis of total and acid extracts, respectively. SAHA (S, 1 µM) was used as a reference HDAC inhibitor. Blots are representative of three independent experiments.\n(§3) Total proteins were extracted using the MPER® reagent (Thermo-scientific, Erembodegem-Aalst, Belgium) supplemented by 1× protease inhibitor cocktail (Complete EDTA-free, Roche, Prophac, Luxembourg, Luxembourg) according to manufacturer’s instructions. Histones were extracted as previously described. Western blots were carried out as previously reported.\n(§4) Corresponding secondary antibodies were from Santa Cruz Biotechnology."}, "U-373 cells": {"system": "U-373 cells", "experiment": "Acetylation of sirtuin targets by Western blot, U-373", "format": "cell-based, human", "settings": "U-373, 5 and 50 µM, 8 h", "method": "as §2, §3, §4"}, "A-549 cells": {"system": "A-549 cells", "experiment": "Acetylation of sirtuin targets by Western blot, A-549", "format": "cell-based, human", "settings": "A-549, 5 and 50 µM, 8 h", "method": "as §2, §3, §4"}, "SIRT1": {"target": "T2, SIRT1 (Homo sapiens, UniProt Q96EB6)", "T2 sequence (Q96EB6 1-747)": "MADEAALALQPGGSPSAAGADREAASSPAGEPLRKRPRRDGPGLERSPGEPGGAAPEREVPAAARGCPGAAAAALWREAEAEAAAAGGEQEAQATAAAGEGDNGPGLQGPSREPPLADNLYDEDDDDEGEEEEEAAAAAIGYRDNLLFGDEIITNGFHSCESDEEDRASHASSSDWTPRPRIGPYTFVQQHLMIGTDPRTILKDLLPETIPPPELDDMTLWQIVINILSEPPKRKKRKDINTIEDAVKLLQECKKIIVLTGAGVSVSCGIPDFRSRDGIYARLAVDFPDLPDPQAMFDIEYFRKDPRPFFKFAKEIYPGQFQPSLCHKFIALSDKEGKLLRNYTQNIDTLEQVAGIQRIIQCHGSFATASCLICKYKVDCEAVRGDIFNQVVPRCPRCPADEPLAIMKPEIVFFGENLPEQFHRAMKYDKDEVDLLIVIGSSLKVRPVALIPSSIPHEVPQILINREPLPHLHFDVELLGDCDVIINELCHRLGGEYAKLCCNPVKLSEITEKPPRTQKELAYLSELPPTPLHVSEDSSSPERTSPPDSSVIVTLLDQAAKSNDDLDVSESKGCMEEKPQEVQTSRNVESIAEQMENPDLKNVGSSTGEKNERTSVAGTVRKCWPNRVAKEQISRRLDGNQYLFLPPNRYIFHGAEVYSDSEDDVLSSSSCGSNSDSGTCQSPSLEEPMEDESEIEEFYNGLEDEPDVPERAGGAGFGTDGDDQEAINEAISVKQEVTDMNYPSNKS", "experiment": "In vitro SIRT1 activity assay", "settings": "IC50 SIRT1, mean ± SD of three independent experiments"}, "SIRT2": {"target": "T3, SIRT2 (Homo sapiens, UniProt Q8IXJ6)", "T3 sequence (Q8IXJ6 1-389)": "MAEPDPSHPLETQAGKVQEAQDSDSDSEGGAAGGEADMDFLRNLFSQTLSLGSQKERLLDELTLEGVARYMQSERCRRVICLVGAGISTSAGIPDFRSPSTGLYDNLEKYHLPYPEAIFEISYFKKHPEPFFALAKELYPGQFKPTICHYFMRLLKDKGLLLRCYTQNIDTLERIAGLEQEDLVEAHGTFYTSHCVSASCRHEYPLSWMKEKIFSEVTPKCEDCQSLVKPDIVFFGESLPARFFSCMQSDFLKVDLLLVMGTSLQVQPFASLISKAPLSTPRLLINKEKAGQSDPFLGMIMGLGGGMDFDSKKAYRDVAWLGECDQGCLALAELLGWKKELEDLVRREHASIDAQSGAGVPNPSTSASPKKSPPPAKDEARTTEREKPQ", "experiment": "In vitro SIRT2 activity assay", "settings": "IC50 SIRT2, mean ± SD of three independent experiments"}},
  "note": "Where “and” joins values, the source holds several entries; their conditions need not be identical. Equal values may be shown once.",
  "data": [
    {"compound": "C=C(C)[C@@H]1CC[C@@H](C)[C@@]2(O)[C@@H]1C=C(C)[C@@H](OC(C)=O)[C@@H]2OC(=O)[C@H](CC(=O)c1ccccc1NC)NC=O", "note": "[Eurochevalierine, eurochevalierine]", "values": [
      {"measurement": "induction of HDAC3 activity", "setting": "HDAC3", "value": 1.5, "unit": "fold"},
      {"measurement": "effect on HDAC10 deacetylase activity", "setting": "HDAC10", "value": "without effect"},
      {"measurement": "sub-G1 fraction", "setting": "B16-F10 cells", "value": "did not increase the sub-G1 fraction"},
      {"measurement": "acetylation of sirtuin targets (AcH4, AcH3K56, Ac α-tubulin)", "setting": "SK-MEL-28 cells", "value": "robust and dose-dependent increase"},
      {"measurement": "acetylation of sirtuin targets (AcH4, AcH3K56, Ac α-tubulin)", "setting": "U-373 cells", "value": "robust and dose-dependent increase"},
      {"measurement": "acetylation of sirtuin targets (AcH4, AcH3K56, Ac α-tubulin)", "setting": "A-549 cells", "value": "robust and dose-dependent increase"},
      {"measurement": "IC50", "setting": "SIRT1", "value": "~10 µM and 9.8 µM"},
      {"measurement": "IC50", "setting": "SIRT2", "value": "10 µM and ~10 µM and 10.2 µM"}
    ]}
  ]
}
